The nature of data set [1]: Optical stability test of different metal salts, 2% premix, illumination at 4500-5000 lux for 5 days, HPLC. The class given is physicochemical. The settings on record: for Residual content of 5 days later (%): 2% premix; for Initial content (%): 2% premix with corncob powder, before illumination. On the procedure: Samples (the premixes) were spread in a stability test chamber and subjected to illumination at 4500-5000 lux for 5 days. Then 1.0 g of each of the samples (three duplicate samples from each sample) and 50 ml of ethanol were added into a conical flask, subjected to sonication for 10 min, and then filtrated through filter paper. The filtrate was transferred into a 50 ml volumetric flask, topped up to the final volume with ethanol, and then filtered with a 0.45 μm microporous membrane and subjected to HPLC analysis. Column: WondasilC18 (250 mm×4.6 mm, 5 μm); Mobile Phase: methanol/40 mM ammonium acetate (65:35, v/v; pH 4): Detection Wavelength: 220 nm; Column Temperature: 25° C.; […] Flow Rate: 0.8 or 1.0 ml/min.

Data set [2] is described as follows: Thermal stability test of different metal salts, 2% premix with corncob powder at 100° C., HPLC. The data set is classed as physicochemical. As to conditions: for Residual content at 100° C. for 20 h (%) / Residual content at 100° C. for 40 h (%): 2% premix; for Initial content (%): 2% premix with corncob powder, before heating; for Residual content at 100° C. for 20 h (%) / Residual content at 100° C. for 40 h (%) / thermal stability (in words): 100° C.; for thermal stability (in words): compared with IST-009-001. As for the experimental part:
(§1) Each of the metal salts of 2-hydroxy-4-propylcyclohepta-2,4,6-trienone prepared in Embodiments 2-6 was mixed with corncob powder to obtain a premix with a mass fraction of 2%. Samples (the premix) were placed in crucibles and spread, and then placed in oven at 100° C. for different durations. Then 1.0 g of each of the samples (three duplicate samples from each sample) and 50 ml of ethanol were added into a conical flask, subjected to sonication for 10 min, and then filtrated through filter paper. The filtrate was transferred into a 50 ml volumetric flask, topped up to the final volume with ethanol, and then filtered with a 0.45 μm microporous membrane and subjected to HPLC analysis.
(§2) Chromatographic Parameters
(§3) Column: Wondasil C18 (250 mm×4.6 mm, 5 μm);
Mobile phase: methanol/40 mM ammonium acetate (65:35, v/v; pH 4):
(§4) Detection Wavelength: 220 nm;
(§5) Column Temperature: 25° C.;
(§6) Flow Rate: 0.8 or 1.0 ml/min.

The nature of data set [3]: Thermal stability test of 7-oxo-3-propylcyclohepta-1,3,5-trien-1-yl stearate, 2% premix with corncob powder in oven, HPLC. The class given is physicochemical. On the procedure:
as §1, with “The” for “Each of the metal salts of 2-hydroxy-4-propylcyclohepta-2,4,6-trienone”, “7-oxo-3-propylcyclohepta-1,3,5-trien-1-yl stearate (IST-009-050)” for “in Embodiments 2-6”, “60°” for “100°”, “C. or eat” for “C.”
as §2, §3
Mobile Phase: acetonitrile (100%);
as §4, §5, §6

For data set [4], the system named is yellow feather broilers (female). Put plainly: Application in broiler feeds, 30 days test period, weight gain and feed conversion. The settings on record: for Average daily weight gain / Average weight gain / Feed conversion efficiency / Consumption: 30 days; for Consumption: group of 100 broilers. The data set is classed as in vivo. The source says:
500 1-day-aged, healthy, fast-grown yellow feather broilers (female) in the same growing state and similar in weight were randomly divided into five groups according to table 4, 100 broilers in each group. Broilers of each group were fed with different dosages of magnesium 7-oxo-3-propylcyclohepta-1,3,5-trienolate or 2-hydroxy-4-propylcyclohepta-2,4,6-trienone.

Setting [5] is: 2.5 ppm mixed with feed, broilers.
The mark [6] stands for this setting: 5.0 ppm mixed with feed, broilers.

In the case of `CCCc1cccc(=O)c(O)c1` [Calcium 7-oxo-3-propylcyclohepta-1,3,5-trienolate], the “Residual content of 5 days later (%)” value in data set [1] (4500-5000 lux, 5 days) is recorded as 0.89%. In data set [2], the “Residual content at 100° C. for 20 h (%)” value is 1.73% and the “Residual content at 100° C. for 40 h (%)” value came to 1.67%.
As for `CCCc1cccc(=O)c(O)c1` [IST-009-001, 2-hydroxy-4-propylcyclohepta-2,4,6-trienone], the “Initial content (%)” value in data set [1] and in data set [2] was 2.0% in each case. For the same compound, in data set [1] (4500-5000 lux, 5 days), the “Residual content of 5 days later (%)” value was determined as 0%. The “Content (%)” value in data set [3] (2% premix, 80° C., 22 h) was 0%; in data set [3] (2% premix, 80° C., 44 h) it was 0%; in data set [3] (2% premix, 80° C., 68 h) it was 0%. Further, the “Average daily weight gain” value is 26.1 g in data set [4] (setting [5]) and 26.8 g in data set [4] (setting [6]). The results for the “Average weight gain” value in data set [4] (setting [5]) and in data set [4] (setting [6]) were 783 g and 804 g, respectively. For the same compound, the Feed conversion efficiency was found to be 1.988 in data set [4] (setting [5]) and 1.906 in data set [4] (setting [6]). The “Consumption” value in data set [4] (2.5 ppm mixed with feed) is recorded as 156.66 kg; in data set [4] (5.0 ppm mixed with feed), 153.24 kg. Besides, in data set [2], the “Residual content at 100° C. for 20 h (%)” value worked out at 0%. Further, the “Residual content at 100° C. for 40 h (%)” value in data set [2] is 0%.
Regarding `CCCCCCCCCCCCCCCCCC(=O)Oc1cc(CCC)cccc1=O` [IST-009-050, 7-oxo-3-propylcyclohepta-1,3,5-trien-1-yl stearate], the “Content (%)” value was determined as 2.0% in data set [3] (2% premix with corncob powder, before heating (no temperature, no time)); 0.84% in data set [3] (2% premix, 60° C., 22 h); 0.35% in data set [3] (2% premix, 60° C., 44 h); 0.14% in data set [3] (2% premix, 60° C., 68 h); 0.61% in data set [3] (2% premix, 80° C., 22 h); 0.03% in data set [3] (2% premix, 80° C., 44 h). Also, the “Content (%)” value in data set [3] (2% premix, 80° C., 68 h) was determined as 0%. In addition, the “thermal stability (in words)” value in data set [3] (compared with IST-009-001) is “better than the unesterified 2-hydroxy-4-propylcyclohepta-2,4,6-trienone (IST-009-001), but not satisfactory yet”.
Take `CCCc1cccc(=O)c(O)c1` [Magnesium 7-oxo-3-propylcyclohepta-1,3,5-trienolate]: the “Residual content of 5 days later (%)” value in data set [1] (4500-5000 lux, 5 days) worked out at 1.52%. Moreover, in data set [4] (setting [5]), the “Average daily weight gain” value was 26.2 g, the “Average weight gain” value is on record as 785 g and the Feed conversion efficiency is given as 1.984. For the same compound, the “Consumption” value in data set [4] (2.5 ppm mixed with feed) was 155.94 kg. Moreover, in data set [4] (setting [6]), the “Average daily weight gain” value turned out to be 26.6 g, the “Average weight gain” value is reported as 798 g and the Feed conversion efficiency was 1.899. In data set [4] (5.0 ppm mixed with feed), the “Consumption” value is reported as 151.54 kg. Besides, in data set [4] (broilers, 30 days test period), the “feed conversion efficiency (in words)” value is recorded as “significantly improved” and the “weight gain (in words)” value is given as “significantly improved”. Besides, the “Residual content at 100° C. for 40 h (%)” value in data set [2] came out at 1.99%.
In the case of `CCCc1cccc(=O)c(O)c1` [Manganese 7-oxo-3-propylcyclohepta-1,3,5-trienolate], in data set [1] (4500-5000 lux, 5 days), the “Residual content of 5 days later (%)” value stood at 1.96% and the “optical stability (in words)” value is on record as “most significant”. Moreover, in data set [2], the “Initial content (%)” value is reported as 2.0%, the “Residual content at 100° C. for 20 h (%)” value was 1.99%, the “Residual content at 100° C. for 40 h (%)” value was found to be 1.98% and the “thermal stability (in words)” value is listed as “highest thermal stability”.
For `CCCc1cccc(=O)c(O)c1` [magnesium 7-oxo-3-propylcyclohepta-1,3,5-trienolate], the “thermal stability (in words)” value in data set [2] is “highest thermal stability”.
Take `CCCc1cccc(=O)c([O-])c1.[K+]` [potassium 7-oxo-3-propylcyclohepta-1,3,5-trienolate]: in data set [1], the “Initial content (%)” value was 2.0%. Moreover, in data set [1] (4500-5000 lux, 5 days), the “Residual content of 5 days later (%)” value worked out at 0.17%. Besides, in data set [2], the “Initial content (%)” value came out at 2.0%, the “Residual content at 100° C. for 20 h (%)” value is 1.43% and the “Residual content at 100° C. for 40 h (%)” value is 1.13%.
For the compound `CCCc1cccc(=O)c([O-])c1.[Na+]` [sodium 7-oxo-3-propylcyclohepta-1,3,5-trienolate], the “Initial content (%)” value in data set [1] is on record as 2.0%. Besides, the “Residual content of 5 days later (%)” value in data set [1] (4500-5000 lux, 5 days) was found to be 0.05%. Also, in data set [2], the “Initial content (%)” value came out at 2.0%, the “Residual content at 100° C. for 20 h (%)” value is given as 1.31% and the “Residual content at 100° C. for 40 h (%)” value was 1.11%.

For the origin of these results see US9938230B2, “Esters or salts of 2-hydroxy-4-propylcyclohepta-2,4,6-trienone and application thereof in preparation of animal antibacterial agents and growth promoters used in feed” (GUANGZHOU INSIGHTER BIOTECHNOLOGY CO., LTD., priority 2014, dated 2018).
